Among the data in ChEMBL document CHEMBL1123148, “Improved synthesis of 2'-deoxyformycin A and studies of its in vitro activity against mouse lymphoma of T-cell origin” (J Med Chem, 1985) are IC50 values, retold here.

Test [1] in a line: Compound along with 10 uM of erythro-9-(2-hydroxy-3-nonyl)adenine (EHNA) was tested against mouse lymphoma T-cells. The format is functional.
A short description of test [2]: Compound evaluated for the inhibitory concentration of S49 Mouse Lymphoma T-cells. The format is functional, cell-based.

Consider `Nc1ncnc2c([C@@H]3O[C@H](CO)[C@@H](O)[C@H]3O)[nH]nc12` [FORMYCIN], for which the IC50 (commonly the point on the concentration scale where inhibition reaches its midpoint) came to 0.03 µM in test [1] and 2.3 µM in test [2].
With `Nc1ncnc2c1ncn2[C@H]1C[C@H](O)[C@@H](CO)O1` [DEOXYADENOSINE], the IC50 came out at 4.5 µM in test [1] and 180 µM in test [2].
In the case of `Nc1ncnc2c([C@H]3C[C@H](O)[C@@H](CO)O3)n[nH]c12`, the IC50 in test [1] was found to be 9.3 µM; in test [2], 13.5 µM.
